{"source": "patent US20210329915A1", "about": "“ABSORPTION PROMOTER, FLYING-INSECT PEST REPELLENT FRAGRANCE-CONTAINING COMPOSITION, AND FLYING-INSECT PEST REPELLENT PRODUCT” (DAINIHON JOCHUGIKU Co., Ltd., priority 2018, published 2021)", "origin": "cited, not measured here", "data": [{"units": {"Vapor pressure at 20° C.": "Pa"}, "values": [{"compound": "OCCOCCO", "note": "[diethylene glycol]", "Vapor pressure at 20° C.": 3}, {"compound": "OCCOCCOCCO", "note": "[triethylene glycol]", "Vapor pressure at 20° C.": 1}, {"compound": "CC(O)CO", "note": "(stereo not drawn) [propylene glycol]", "Vapor pressure at 20° C.": 10.7}, {"compound": "OCCOCc1ccccc1", "note": "[benzyl glycol]", "Vapor pressure at 20° C.": 2.7}, {"compound": "CC(O)COC(C)COC(C)CO", "note": "(stereo not drawn) [tripropylene glycol]", "Vapor pressure at 20° C.": 0.67}, {"compound": "CCCCOCCOCCO", "note": "[diethylene glycol monobutyl ether]", "Vapor pressure at 20° C.": 3}]}]}
